Literature values, collected in patent US6121280A, “Azabicyclic rotomase inhibitors” (Pfizer Inc., priority 1999, dated 2000).

Test system: neuronal cell line and culture models
Conditions: Lyons et al. 1994, Snyder et al. 1995

**Q.** With C=CC[C@@H]1/C=C(\C)C[C@H](C)C[C@H](OC)[C@H]2O[C@@](O)(C(=O)C(=O)N3CCCC[C@H]3C(=O)O[C@H](/C(C)=C/[C@@H]3CC[C@@H](O)[C@H](OC)C3)[C@H](C)[C@@H](O)CC1=O)[C@H](C)C[C@@H]2OC [FK-506] as the compound, how does the “neurite outgrowth in vitro” value read?
**A.** promoted neurite outgrowth
